Legend:
RON kinase = target: T1, RON kinase (Homo sapiens, UniProt Q04912); test: RON kinase enzyme inhibitory activity, FRET (TR-FRET) technique; assay type: biochemical; settings: 60 min reaction
T1 construct: purchased Carna Bioscience
In short: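 RON kinase (2× stock 0.4 nM) was preincubated 15 min with compound in HEPES pH 7.5/MgCl2 buffer, then reacted 60 min at room temperature with ATP (4× stock 60 μM) and tyrosine peptide substrate (4× stock 400 nM). The reaction was stopped with EDTA plus Eu-anti-phosphotyrosine antibody and read by TR-FRET (ex 340, em 620/665 nm). IC50 came from 665 nm emission versus concentration.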

HT29 cells = test: Cytotoxicity MTS assay, HT29; assay type: cell-based; settings: Homo sapiens, HT-29, 72 hours
Method: (§1) In order to confirm the specific cytotoxicity of the drugs, the cultured cells were treated with 0.05% trypsin/EDTA (0.5% trypsin EDTA (10×), Product No.: 15400-054, GIBCO) to detach them from the culture dish, and 3,000 cells (KM12C) or 2,000 cells (HT29, Colo 320 HSR) were dispensed into each well.
(§2) After 24 hours, sample compounds were dissolved in DMSO (Product No.: D8418-250ML, SIGMA) to make 10 mM stock solutions. As the sample compounds, the compounds synthesized in the examples of the present invention and the compounds of the comparative examples were used.
(§3) The cells were treated with the sample compound dilutions, and cultured in a 5% CO2 incubator at 37° C. for 72 hours.
(§4) Thereafter, 20 μL of MTS solution (CellTiter™ 96 Aqueous One Solution Cell Proliferation Assay, Product No.: G3581, Promega) was dispensed into each well and mixed well, and the cells were incubated for 1 to 4 hours at 37° C. in a 5% CO2 incubator.

[1] = test system: RON-mutated (Δ160) HT-29 colon cancer cell line; test: Cell killing efficacy, trypan blue exclusion assay, HT-29; assay type: cell-based; settings: HT29 cell, 48 hours
In short: (§5)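 KM12C (MEM+10% FBS) and HT-29 (RPMI+10% FBS) cells, seeded 24 h earlier, exposed to compound at 1 μM or 5 μM for 48 h after medium change. Live and dead cells counted by trypan blue exclusion (n=2); cell death rate reported relative to a reference comparative compound.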

[2] = test system: RON-activated KM12C colon cancer cell line; test: Cell killing efficacy, trypan blue exclusion assay, KM12C; assay type: cell-based; settings: 48 hours
In short: as §5

KM12C cells = test: Cytotoxicity MTS assay, KM12C; assay type: cell-based; settings: Homo sapiens, 72 hours
Method: as §1, §2, §3, §4

T1 sequence (Q04912 25-1400): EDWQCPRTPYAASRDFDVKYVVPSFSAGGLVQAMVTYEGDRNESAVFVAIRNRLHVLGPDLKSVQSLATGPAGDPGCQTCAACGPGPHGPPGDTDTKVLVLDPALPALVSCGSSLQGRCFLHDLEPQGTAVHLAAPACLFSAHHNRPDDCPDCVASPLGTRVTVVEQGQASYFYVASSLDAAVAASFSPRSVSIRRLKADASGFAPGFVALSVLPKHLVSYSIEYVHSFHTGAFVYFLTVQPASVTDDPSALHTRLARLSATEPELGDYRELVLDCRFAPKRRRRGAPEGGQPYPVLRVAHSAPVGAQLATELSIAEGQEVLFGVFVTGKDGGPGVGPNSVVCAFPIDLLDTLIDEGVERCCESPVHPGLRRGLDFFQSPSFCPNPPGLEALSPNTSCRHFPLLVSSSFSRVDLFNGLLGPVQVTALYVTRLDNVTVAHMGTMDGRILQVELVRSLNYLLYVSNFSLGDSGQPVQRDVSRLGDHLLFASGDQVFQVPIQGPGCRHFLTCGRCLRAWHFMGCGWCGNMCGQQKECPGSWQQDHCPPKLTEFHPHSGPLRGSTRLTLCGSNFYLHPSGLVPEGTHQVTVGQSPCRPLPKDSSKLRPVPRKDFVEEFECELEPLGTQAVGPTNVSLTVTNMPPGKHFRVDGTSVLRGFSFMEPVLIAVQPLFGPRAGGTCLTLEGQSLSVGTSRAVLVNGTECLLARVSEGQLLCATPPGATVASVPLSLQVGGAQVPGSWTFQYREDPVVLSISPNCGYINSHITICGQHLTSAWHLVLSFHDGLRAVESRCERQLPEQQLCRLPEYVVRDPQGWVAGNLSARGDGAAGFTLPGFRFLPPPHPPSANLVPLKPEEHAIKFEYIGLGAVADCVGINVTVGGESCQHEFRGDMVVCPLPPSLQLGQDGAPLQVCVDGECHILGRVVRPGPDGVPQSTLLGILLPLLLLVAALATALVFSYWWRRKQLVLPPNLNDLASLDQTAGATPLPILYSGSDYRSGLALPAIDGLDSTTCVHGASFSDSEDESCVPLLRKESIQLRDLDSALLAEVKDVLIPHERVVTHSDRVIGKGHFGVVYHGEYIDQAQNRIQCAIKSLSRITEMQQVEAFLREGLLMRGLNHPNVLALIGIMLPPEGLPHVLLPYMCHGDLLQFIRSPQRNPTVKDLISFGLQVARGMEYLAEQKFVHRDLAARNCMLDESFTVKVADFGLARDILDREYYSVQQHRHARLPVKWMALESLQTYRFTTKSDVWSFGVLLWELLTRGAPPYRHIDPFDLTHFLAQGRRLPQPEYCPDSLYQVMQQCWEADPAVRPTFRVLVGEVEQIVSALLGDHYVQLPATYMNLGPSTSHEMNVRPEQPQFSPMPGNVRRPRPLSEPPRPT

Question: `CCOc1ccn(-c2ccc(F)cc2)c(=O)c1C(=O)Nc1ccc(Oc2ccnc3cc(-c4ccc(CN5CCN(C)CC5)cn4)sc23)c(F)c1.Cl` [Example 33, 4-ethoxy-N-{3-fluoro-4-[(2-{5-[(4-methylpiperazin-1-yl)methyl]pyridin-2-yl}thieno[3,2-b]pyridin-7-yl)oxy]phenyl}-1-(4-fluorophenyl)-2-oxo-1,2-dihydropyridine-3-carboxamide Hydrochloride] was tested. Which IC50 (RON kinase) did it give?
Answer: 0.26 nM

Question: And the IC50 (HT29 cells)?
Answer: 335 nM

Question: And the “Cell death rate (Relative to Comp. Ex. 1)” value ([1]; 1 μM)?
Answer: x 2.01

Question: And the “Cell death rate (Relative to Comp. Ex. 1)” value ([1]; 5 μM)?
Answer: x 1.50

Question: What about the “Cell death rate (Relative to Comp. Ex. 1)” value ([2]; 1 μM) of the same compound?
Answer: x 1.99

Question: What about the “Cell death rate (Relative to Comp. Ex. 1)” value ([2]; 5 μM) of the same compound?
Answer: x 2.13

Question: What about the IC50 (KM12C cells) of the same compound?
Answer: 9 nM
